According to PMC11497361 (Current Research in Microbial Sciences, 2024):

Target: WNV NS5 WT
Assay: MTase-Glo luminescence methyltransferase assay
Assay type: biochemical, Orthoflavivirus nilense
Settings: poly-A RNA acceptor, 20 µM SAM, pH 9, 30 °C, 25 min; MTase activity

Row | Compound | IC50 [µM]
1 | Nc1ncnc2c1ncn2[C@@H]1O[C@H](CNC(=O)C(c2ccccc2)(c2ccccc2)c2ccccc2)[C@@H](O)[C@H]1O [compound 1, 5´-(2,2,2-triphenylacetamide)-5´-deoxyadenosine] | 21.6 ± 11.1
2 | Nc1ncnc2c1ncn2[C@@H]1O[C@H](C[C@@H](N)CC[C@H](N)C(=O)O)[C@@H](O)[C@H]1O [sinefungin] | 3.6 ± 1.8
